# Assay results as given in patent publication US10239868B2, “5-hydroxytryptamine receptor 7 activity modulators and their method of use” (TEMPLE UNIVERSITY OF THE COMMONWEALTH SYSTEM OF HIGHER …, priority 2013, dated 2019).
# Molecular target: Serotonin 5HT7 receptors (Homo sapiens (Human), UniProt P34969)
# Assay: Radiolabel Binding Studies for Serotonin 5HT7 receptors;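 further: displacement of a tritiated radioligand from membranes of stably transfected cells carrying recombinant 5-HT7 receptor, with filter-bound radioactivity measured by scintillation counting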
# Conditions: read-out: 5-HT7 % inhib @ 10 uM
# Procedure: Radiolabel Binding Studies for Serotonin 5HT7 Receptors, Method 1:
# Eleven dilutions (5× assay concentration) of the compound of the disclosure and chlorpromazine are prepared in the Assay Buffer by serial dilution to yield final corresponding assay concentrations ranging from 10 pM to 10 μM.
# A stock concentration of 5 nM [^3H]LSD (lysergic acid diethyl amide) is prepared in 50 mM Tris-HCl, 10 mM MgCl2, 1 mM EDTA, pH 7.4 (Assay Buffer). Aliquots (50 μl) of radioligand are dispensed into the wells of a 96-well plate containing 100 μl of Assay Buffer. Duplicate 50-μl aliquots of the compound of the disclosure test and chlorpromazine positive control reference compound serial dilutions are added.
# Membrane fractions of cells expressing recombinant 5HT7 receptors (50 μL) are dispensed into each well. The membranes are prepared from stably transfected cell lines expressing 5HT7 receptors cultured on 10-cm plates by harvesting PBS-rinsed monolayers, resuspending and lysing in chilled, hypotonic 50 mM Tris-HCl, pH 7.4, centrifuging at 20,000×g, decanting the supernatant and storing at −80° C.; the membrane preparations are resuspended in 3 ml of chilled Assay Buffer and homogenized by several passages through a 26 gauge needle before using in the assay.
# The 250-μl reactions are incubated at room temperature for 1.5 hours, then harvested by rapid filtration onto 0.3% polyethyleneimine-treated, 96-well filter mats using a 96-well Filtermate harvester. Four rapid 500-μl washes are performed with chilled Assay Buffer to reduce non-specific binding. The filter mats are dried, then scintillant is added to the filters and the radioactivity retained on the filters is counted in a Microbeta scintillation counter.
# Raw data (dpm) representing total radioligand binding (i.e., specific+non-specific binding) are plotted as a function of the logarithm of the molar concentration of the competitor (i.e., test or reference compound).
# Sequence of Serotonin 5HT7 receptors (P34969 whole entry): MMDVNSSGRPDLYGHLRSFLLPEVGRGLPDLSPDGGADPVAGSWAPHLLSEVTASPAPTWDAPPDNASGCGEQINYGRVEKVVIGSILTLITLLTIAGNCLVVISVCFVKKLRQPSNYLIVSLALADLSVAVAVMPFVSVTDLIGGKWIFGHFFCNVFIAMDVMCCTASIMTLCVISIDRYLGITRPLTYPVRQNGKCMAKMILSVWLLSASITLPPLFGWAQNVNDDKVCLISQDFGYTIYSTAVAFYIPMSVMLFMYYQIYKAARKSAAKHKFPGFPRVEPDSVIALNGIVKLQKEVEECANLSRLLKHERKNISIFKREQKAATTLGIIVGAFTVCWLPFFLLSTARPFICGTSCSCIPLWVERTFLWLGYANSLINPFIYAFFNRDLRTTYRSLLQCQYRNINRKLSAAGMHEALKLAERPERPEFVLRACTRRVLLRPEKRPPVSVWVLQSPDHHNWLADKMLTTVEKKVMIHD
row,SMILES,inhibition at 10 µM [%]
1,CCC1(CC)CC(CCN2CCN(c3ccc(O)cc3)CC2)OC1=O (stereo not shown) [Entry 1],95.9
2,CCC1(CC)CC(CCN2CCN(c3ccc([N+](=O)[O-])cc3)CC2)OC1=O (stereo not shown) [Entry 2],93.3
3,CCC1(CC)CC(CCN2CCN(c3ccc(C#N)cc3)CC2)OC1=O (stereo not shown) [Entry 3],88.4
4,CCC1(CC)CC(CCN2CCN(c3ccc(C)cc3)CC2)OC1=O (stereo not shown) [Entry 4],96.6
5,CCC1(CC)CC(CCN2CCN(CCc3ccccc3)CC2)OC1=O (stereo not shown) [Entry 5],53.1
6,CCC1(CC)CC(CCN2CCN(c3ccccc3O)CC2)OC1=O (stereo not shown) [Entry 6],99.9
7,CCC1(CC)CC(CCN2CCN(c3cccc(OC)c3)CC2)OC1=O (stereo not shown) [Entry 7],94.8
8,CCC1(CC)CC(CCN2CCN(c3cccc(O)c3)CC2)OC1=O (stereo not shown) [Entry 8],93.6
9,CCC1(CC)CC(CCN2CCN(c3ccccn3)CC2)OC1=O (stereo not shown) [Entry 9],101
10,CCC1(CC)CC(CCN2CCN(c3c(C)cccc3C)CC2)OC1=O (stereo not shown) [Entry 10],70.4
11,CCC1(CC)CC(CCN2CCN(c3ccccc3)CC2)OC1=O (stereo not shown) [Entry 11],95.4
12,CCC1(CC)CC(CCN2CCN(c3ccc(N)cc3)CC2)OC1=O (stereo not shown) [Entry 12],80.9
13,CCC1(CC)CC(CCN2CCN(C3CCCCC3)CC2)OC1=O (stereo not shown) [Entry 13],82.5
14,CCC1(CC)CC(CCN2CCN(c3ccccc3C(C)C)CC2)OC1=O (stereo not shown) [Entry 14],54.3
15,CCC1(CC)CC(CCN2CCN(C(c3ccccc3)c3ccccc3)CC2)OC1=O (stereo not shown) [Entry 15],58.4
16,CCC1(CC)CC(CCN2CCN(c3ccccc3C)CC2)OC1=O (stereo not shown) [Entry 16],58.2
17,CCC1(CC)CC(CCN2CCN(c3ccc(C)cc3C)CC2)OC1=O (stereo not shown) [Entry 17],56.2
18,CCC1(CC)CC(CCN2CCc3ccccc3C2)OC1=O (stereo not shown) [Entry 18],82
19,COc1ccc(N2CCN(CCC3CC4(CCCCC4)C(=O)O3)CC2)cc1 (stereo not shown) [Entry 20],78.1
20,O=C1OC(CCN2CCN(c3cccc(O)c3)CC2)CC12CCCCC2 (stereo not shown) [Entry 21],86.8
21,O=C1OC(CCN2CCN(c3ccccc3)CC2)CC12CCCCC2 (stereo not shown) [Entry 22],98
22,COc1cccc(N2CCN(CCC3CC4(CCCCC4)C(=O)O3)CC2)c1 (stereo not shown) [Entry 23],93.7
23,COc1ccccc1N1CCN(CCC2CC3(CCCCC3)C(=O)O2)CC1 (stereo not shown) [Entry 24],90.7

row,SMILES,inhibition at 10 µM [%]
1,O=C1OC(CCN2CCN(c3ccccc3O)CC2)CC12CCCCC2 (stereo not shown) [Entry 25],93.3
2,O=C1OC(CCN2CCN(c3ccccn3)CC2)CC12CCCCC2 (stereo not shown) [Entry 26],97.4
3,O=C1OC(CCN2CCN(c3ccccc3Cl)CC2)CC12CCCCC2 (stereo not shown) [Entry 27],97
4,O=C1OC(CCN2CCN(c3ccc(Cl)cc3)CC2)CC12CCCCC2 (stereo not shown) [Entry 28],98
5,O=C1OC(CCN2CCN(c3ccc(C(F)(F)F)cc3)CC2)CC12CCCCC2 (stereo not shown) [Entry 29],96
6,O=C1OC(CCN2CCN(c3ccncc3)CC2)CC12CCCCC2 (stereo not shown) [Entry 30],46.5
7,O=C1OC(CCN2CCN(c3ccc(O)cc3)CC2)CC12CCCCC2 (stereo not shown) [Entry 31],54.1
8,O=C1OC(CCN2CCN(c3cccnc3)CC2)CC12CCCCC2 (stereo not shown) [Entry 32],76.3
9,N#Cc1ccc(N2CCN(CCC3CC4(CCCCC4)C(=O)O3)CC2)cc1 (stereo not shown) [Entry 33],83.4
10,N#Cc1ccc(N2CCN(CCC3CC4(CCCCC4)C(=O)O3)CC2)nc1 (stereo not shown) [Entry 34],64.2
11,O=C1OC(CCN2CCN(c3ccc(C(F)(F)F)cn3)CC2)CC12CCCCC2 (stereo not shown) [Entry 35],91.1
12,O=C1OC(CCN2CCN(c3ccc(Cl)cn3)CC2)CC12CCCCC2 (stereo not shown) [Entry 36],96.7
13,CCC1(CC)CC(CCN2CCC(C(O)(c3ccccc3)c3ccccc3)CC2)OC1=O (stereo not shown) [Entry 37],69
14,CCC1(CC)CC(CCN2CCC(=C(c3ccccc3)c3ccccc3)CC2)OC1=O (stereo not shown) [Entry 38],96.5
15,CC(C)c1ccccc1N1CCN(CCC2CC3(CCCC3)C(=O)O2)CC1 (stereo not shown) [Entry 39],96.1
16,CC(C)(C)c1ccccc1N1CCN(CCC2CC3(CCCC3)C(=O)O2)CC1 (stereo not shown) [Entry 40],81.7
17,CC(C)c1cccc(C(C)C)c1N1CCN(CCC2CC3(CCCC3)C(=O)O2)CC1 (stereo not shown) [Entry 41],25.2
18,O=C1OC(CCN2CCN(c3ccccc3N3CCOCC3)CC2)CC12CCCC2 (stereo not shown) [Entry 42],97.2
19,CCC1(CC)CC(CCN2CCN(c3ccccc3OC)CC2)OC1=O (stereo not shown) [Entry 43],95.3
20,Cc1ccc(N2CCN(CC3CC(c4ccccc4)(c4ccccc4)C(=O)O3)CC2)cc1 (stereo not shown) [Entry 44],40.8
21,Cc1ccc(N2CCN(CCC3CC(c4ccccc4)(c4ccccc4)C(=O)O3)CC2)cc1 (stereo not shown) [Entry 45],97.4
22,Cc1ccc(N2CCN(CCCC3CC(c4ccccc4)(c4ccccc4)C(=O)O3)CC2)cc1 (stereo not shown) [Entry 46],96.8
23,CCC1(CC)CC(CCN2CCC(c3ccccc3)CC2)OC1=O (stereo not shown) [Entry 47],29.3
